Experimental data from patent US20200060276A1, “THIAZOLE COMPOUND AND HERBICIDE” (OAT Agrio Co., Ltd., priority 2017, published 2020).

Assays:
Type in all cases: in vivo
[1] = tested on: Echinochloa crus-galli (L.) P. Beauv. var. formosensis Ohwi; assay: Test for Herbicidal Effect in Flooding Treatment (#1), ECHDG; conditions: for ECHDG #1 herbicidal effect (growth inhibition rating 0-5): flooding treatment #1; for ECHDG #1 herbicidal effect (growth inhibition grade): flooding treatment at seeding, dose 2 kg/ha, visual observation on day 21
Procedure, shortened: (§1)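 Visual scores from 0 (<10% inhibition) to 5 (≥90% or complete withering) were taken 21 days after treatment of glasshouse-grown plants. Seeds were sown in soil flooded for 24 h beforehand, and compound was applied dropwise onto the surface at 2 kg/ha as an acetone solution diluted in water with Tween 80.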

Monochoria vaginalis = assay: Test for Herbicidal Effect in Flooding Treatment (#1), MONVA; conditions: for MONVA #1 herbicidal effect (growth inhibition rating 0-5): flooding treatment #1; for MONVA #1 herbicidal effect (growth inhibition grade): flooding treatment at seeding, dose 2 kg/ha, visual observation on day 21
Procedure: (#1) Test for Herbicidal Effect in Flooding Treatment: Styrol cups each having an opening diameter of 8 cm (about 52 cm^2) were respectively filled with soil (45 ml) which had been passed through a sieve (2 mm). Water (about 115 ml) was mixed with the soil such that the soil was flooded. After the soil stood still for 24 hours, Monochoria vaginalis, Echinochloa crus-galli (L.) P. Beauv. var. formosensis Ohwi, Cyperus difformis (umbrella sedge), and Scirpus juncoides were seeded. Each of the compounds of the present invention was dissolved in acetone, and the obtained product was then diluted with water containing Tween 80®. Each of the resultant chemical solutions was dropped on the entire surface of an associated one of treatment sections, so that each section was treated with 1 ml of the respective chemical solution (a dose of 2 kg/ha). After the treatment, the plants were grown in a glasshouse. On day 21, a survey was conducted on the herbicidal activity by visual observation, and evaluation was made according to the following criteria. 0: Growth inhibition effect is less than 10%. 1: Growth inhibition effect is equal to or greater than 10%, and less than 30%. 2; Growth inhibition effect is equal to or greater than 30%, and less than 50%. 3: Growth inhibition effect equal to or greater than 50%, and less than 70%. 4: Growth inhibition effect is equal to or greater than 70%, and less than 90%. 5: Growth inhibition effect is equal to or greater than 90%, or complete withering is achieved. ECHDG=Echinochloa crus-galli (L.) P. Beauv. var. formosensis Ohwi, MONVA=Monochoria vaginalis, SCIJU=Scirpus juncoides, CYMIC=Cyperus microiria.

Scirpus juncoides = assay: Test for Herbicidal Effect in Flooding Treatment (#1), SCIJU; conditions: for SCIJU #1 herbicidal effect (growth inhibition rating 0-5): flooding treatment #1; for SCIJU #1 herbicidal effect (growth inhibition grade): flooding treatment at seeding, dose 2 kg/ha, visual observation on day 21
Procedure, shortened: as §1

[2] = tested on: Echinochloa crus-galli (L.) P. Beauv. var. formosensis Ohwi; assay: Test for Herbicidal Effect in Flooding Treatment (#2), ECHDG at 2-2.5 leaf stage; conditions: for ECHDG (2-2.5L) #2 herbicidal effect (growth inhibition rating 0-5): flooding treatment #2, 2-2.5 leaf stage; for ECHDG (2-2.5L) #2 herbicidal effect (growth inhibition grade): flooding treatment at 2-2.5 leaf stage, dose 0.2 kg/ha, visual observation on day 21
Procedure, shortened: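 Flooded muddy soil was seeded with the weed, and at 2–2.5 leaf stage compound in acetone/Tween 80 water was dropped on the water surface at 0.2 kg/ha. Plants were kept in a glasshouse and scored visually on day 21 from 0 (<10% growth inhibition) to 5 (≥90% or complete withering).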

SMILES | ECHDG #1 herbicidal effect (growth inhibition rating 0-5) [1] | MONVA #1 herbicidal effect (growth inhibition rating 0-5) (Monochoria vaginalis) | SCIJU #1 herbicidal effect (growth inhibition rating 0-5) (Scirpus juncoides) | ECHDG (2-2.5L) #2 herbicidal effect (growth inhibition rating 0-5) [2] | ECHDG #1 herbicidal effect (growth inhibition grade) [1] | MONVA #1 herbicidal effect (growth inhibition grade) (Monochoria vaginalis) | SCIJU #1 herbicidal effect (growth inhibition grade) (Scirpus juncoides) | ECHDG (2-2.5L) #2 herbicidal effect (growth inhibition grade) [2] | inhibition at 200 g/ha ([2]; Echinochloa crus-galli, 504 h, flooding treatment (#2), ECHDG at 2-2.5 leaf stage, dose of 0.2 kg/ha, day 21, visual observation, read-out: growth inhibition effect)
CC(c1c(F)cccc1OC(F)F)[S+]([O-])c1ncc(Cl)s1 (stereo not drawn) [Compound 1B-16] | 5 (Growth inhibition effect is equal to or greater than 90%, or complete withering is achieved) | 5 (Growth inhibition effect is equal to or greater than 90%, or complete withering is achieved) | 5 (Growth inhibition effect is equal to or greater than 90%, or complete withering is achieved) | 3 (Growth inhibition effect equal to or greater than 50%, and less than 70%) |  |  |  |  | 
O=S(=O)(Cc1c(F)cc(F)cc1OC(F)F)c1ncc(Cl)s1 [Compound 1C-44] |  |  |  |  | 5 (Growth inhibition effect is equal to or greater than 90%, or complete withering is achieved) | 5 (Growth inhibition effect is equal to or greater than 90%, or complete withering is achieved) | 5 (Growth inhibition effect is equal to or greater than 90%, or complete withering is achieved) | 5 (Growth inhibition effect is equal to or greater than 90%, or complete withering is achieved) | 
COc1cccc(Cl)c1CS(=O)(=O)c1ncc(Cl)s1 [Compound 1C-6] |  |  |  |  | 5 (Growth inhibition effect is equal to or greater than 90%, or complete withering is achieved) | 5 (Growth inhibition effect is equal to or greater than 90%, or complete withering is achieved) | 5 (Growth inhibition effect is equal to or greater than 90%, or complete withering is achieved) | 5 (Growth inhibition effect is equal to or greater than 90%, or complete withering is achieved) | ≥ 90%
COc1cccc(Cl)c1C[S+]([O-])c1ncc(Br)s1 (stereo not drawn) [Compound 1B-17] | 5 (Growth inhibition effect is equal to or greater than 90%, or complete withering is achieved) | 3 (Growth inhibition effect equal to or greater than 50%, and less than 70%) | 5 (Growth inhibition effect is equal to or greater than 90%, or complete withering is achieved) | 5 (Growth inhibition effect is equal to or greater than 90%, or complete withering is achieved) |  |  |  |  | 
[O-][S+](Cc1c(Cl)cccc1OC(F)(F)C(F)(F)F)c1ncc(Br)s1 (stereo not drawn) [Compound 1B-24] | 5 (Growth inhibition effect is equal to or greater than 90%, or complete withering is achieved) | 5 (Growth inhibition effect is equal to or greater than 90%, or complete withering is achieved) | 5 (Growth inhibition effect is equal to or greater than 90%, or complete withering is achieved) | 5 (Growth inhibition effect is equal to or greater than 90%, or complete withering is achieved) |  |  |  |  | 
[2H]C([2H])(c1c(Cl)ccc(OC)c1Cl)S(=O)(=O)c1ncc(Cl)s1 [Compound 1C-137] |  |  |  |  | 5 (Growth inhibition effect is equal to or greater than 90%, or complete withering is achieved) | 5 (Growth inhibition effect is equal to or greater than 90%, or complete withering is achieved) | 5 (Growth inhibition effect is equal to or greater than 90%, or complete withering is achieved) | 5 (Growth inhibition effect is equal to or greater than 90%, or complete withering is achieved) | 
[2H]C([2H])(c1c(Cl)ccc(OC)c1F)S(=O)(=O)c1ncc(Cl)s1 [Compound 1C-136] |  |  |  |  | 5 (Growth inhibition effect is equal to or greater than 90%, or complete withering is achieved) | 5 (Growth inhibition effect is equal to or greater than 90%, or complete withering is achieved) | 5 (Growth inhibition effect is equal to or greater than 90%, or complete withering is achieved) | 5 (Growth inhibition effect is equal to or greater than 90%, or complete withering is achieved) | 
[O-][S+](Cc1c(OCC(F)F)cccc1C(F)(F)F)c1ncc(Cl)s1 (stereo not drawn) [Compound 1B-8] | 5 (Growth inhibition effect is equal to or greater than 90%, or complete withering is achieved) | 5 (Growth inhibition effect is equal to or greater than 90%, or complete withering is achieved) | 5 (Growth inhibition effect is equal to or greater than 90%, or complete withering is achieved) | 5 (Growth inhibition effect is equal to or greater than 90%, or complete withering is achieved) |  |  |  |  | 
O=S(=O)(Cc1c(Cl)cccc1OCC(F)(F)F)c1ncc(Cl)s1 [Compound 1C-55] |  |  |  |  | 5 (Growth inhibition effect is equal to or greater than 90%, or complete withering is achieved) | 5 (Growth inhibition effect is equal to or greater than 90%, or complete withering is achieved) | 5 (Growth inhibition effect is equal to or greater than 90%, or complete withering is achieved) | 5 (Growth inhibition effect is equal to or greater than 90%, or complete withering is achieved) | 
[O-][S+](Cc1c(F)cccc1OCC(F)(F)C(F)F)c1ncc(Cl)s1 (stereo not drawn) [Compound 1B-13] | 5 (Growth inhibition effect is equal to or greater than 90%, or complete withering is achieved) | 5 (Growth inhibition effect is equal to or greater than 90%, or complete withering is achieved) | 5 (Growth inhibition effect is equal to or greater than 90%, or complete withering is achieved) | 2 (Growth inhibition effect is equal to or greater than 30%, and less than 50%) |  |  |  |  | 
COc1ccc(Cl)c(CS(=O)(=O)c2ncc(Cl)s2)c1Cl [Compound 1C-73] |  |  |  |  | 5 (Growth inhibition effect is equal to or greater than 90%, or complete withering is achieved) | 5 (Growth inhibition effect is equal to or greater than 90%, or complete withering is achieved) | 5 (Growth inhibition effect is equal to or greater than 90%, or complete withering is achieved) | 5 (Growth inhibition effect is equal to or greater than 90%, or complete withering is achieved) | 
O=S(=O)(Cc1c(F)cccc1OCCC(F)(F)F)c1ncc(Cl)s1 [Compound 1C-58] |  |  |  |  | 5 (Growth inhibition effect is equal to or greater than 90%, or complete withering is achieved) | 5 (Growth inhibition effect is equal to or greater than 90%, or complete withering is achieved) | 5 (Growth inhibition effect is equal to or greater than 90%, or complete withering is achieved) | 5 (Growth inhibition effect is equal to or greater than 90%, or complete withering is achieved) | 
[2H]C([2H])(c1c(Cl)cccc1OCC(F)(F)F)S(=O)(=O)c1ncc(Cl)s1 [Compound 1C-135] |  |  |  |  | 5 (Growth inhibition effect is equal to or greater than 90%, or complete withering is achieved) | 5 (Growth inhibition effect is equal to or greater than 90%, or complete withering is achieved) | 5 (Growth inhibition effect is equal to or greater than 90%, or complete withering is achieved) | 5 (Growth inhibition effect is equal to or greater than 90%, or complete withering is achieved) | 
O=S(=O)(Cc1c(F)cccc1OCC(F)(F)F)c1ncc(Cl)s1 [Compound 1C-54] |  |  |  |  | 5 (Growth inhibition effect is equal to or greater than 90%, or complete withering is achieved) | 5 (Growth inhibition effect is equal to or greater than 90%, or complete withering is achieved) | 5 (Growth inhibition effect is equal to or greater than 90%, or complete withering is achieved) | 5 (Growth inhibition effect is equal to or greater than 90%, or complete withering is achieved) | 
